Source: patent EP0008888A1, “Beta-lactam antibacterial compounds, their preparation and pharmaceutical compositions containing them” (BEECHAM GROUP PLC, priority 1978, dated 1980)
Values after ≈ are worked out from the molar mass of the structure shown. Like-named read-outs stand apart in the source and are kept apart here.

What was measured:
Assay in all cases: MIC in a standard test
Format in all cases: cell-based
[1] = test system: Salmonella typhimurium CT10; details: Salmonella enterica
Klebsiella aerogenes A = test system: Klebsiella aerogenes A
Pseudomonas aeruginosa A = test system: Pseudomonas aeruginosa A
Escherichia coli JT39 = test system: Escherichia coli JT39
[2] = test system: Staphylococcus aureus 1517
Serratia marcescens US20 = test system: Serratia marcescens US20
[3] = test system: Streptococcus pyogenes CN10
[4] = test system: Staphylococcus aureus Russell
Bacillus subtilis A = test system: Bacillus subtilis A
Proteus morganii I580 = details: Morganella morganii
Streptococcus faecalis I = details: Enterococcus faecalis
[5] = test system: Staphylococcus aureus Oxford
Proteus rettgeri WM16 = details: Providencia rettgeri
Citrobacter freundii E8 = test system: Citrobacter freundii E8
Escherichia coli 0111 = test system: Escherichia coli 0111
Proteus vulgaris WO91 = test system: Proteus vulgaris WO91
Proteus mirabilis C977 = test system: Proteus mirabilis C977
[6] = test system: Streptococcus pneumoniae CN33
Enterobacter cloacoae N1 = test system: Enterobacter cloacoae N1
Shigella sonnei MB 11967 = details: MB11967
[7] = standard test, Escherichia coli JT39, read-out: MIC

Row | SMILES | MIC [1] [µg/mL] | MIC (Klebsiella aerogenes A) [µg/mL] | MIC (Pseudomonas aeruginosa A) [µg/mL] | MIC (Escherichia coli JT39; [7]) [µg/mL] | MIC [2] [µg/mL] | MIC (Serratia marcescens US20) [µg/mL] | MIC [3] [µg/mL] | MIC [4] [µg/mL] | MIC (Bacillus subtilis A) [µg/mL] | MIC (Proteus morganii I580) [µg/mL] | MIC (Streptococcus faecalis I) [µg/mL] | MIC [5] [µg/mL] | MIC (Proteus rettgeri WM16) [µg/mL] | MIC (Citrobacter freundii E8) [µg/mL] | MIC (Escherichia coli 0111) [µg/mL] | MIC (Proteus vulgaris WO91) [µg/mL] | MIC (Proteus mirabilis C977) [µg/mL] | MIC [6] [µg/mL] | MIC (Enterobacter cloacoae N1) [µg/mL] | MIC (Shigella sonnei MB 11967) [µg/mL] | also measured
1 | COC(=O)CCSC1=C(C(=O)O)N2C(=O)C[C@H]2C1 [Example 23, Potassium 3-(2-methoxycarbonylethvlthio)-7-oxo-l-azabicyclo[3.2.0]hept-2-ene-2-carboxylate] | 3.1 | 1.6 | > 50 | 6.2 | > 50 | 25 | 0.8 | 50 | 3.1 | 25 | > 50 | 12.5 | 25 | 1.6 | 1.6 | 25 | 12.5 | ≤ 0.2 |  |  | 
2 | CSC1=C(C(=O)[O-])N2C(=O)CC2C1.[Na+] (centres unmarked) [Example 42, Sodium 3-methylthio-7-oxo-1-azabicyclo[3.2.0]hept-2-ene-2-carboxylate] | 3.1 | 3.1 | > 50 |  | > 50 | 3.1 | 0.8 | 12.5 | 1.6 | 25 | > 50 | 6.2 | 25 | 1.6 | 3.1 | 25 | 25 | ≤ 0.2 | 3.1 | 3.1 | MIC (Escherichia coli JT39; Escherichia coli, JT39): 6.2 µg/mL
3 | O=C(O)C1=C(SCc2ccccc2)C[C@@H]2CC(=O)N12 [Example 47, Sodium 3-benzylthio-7-oxo-1-azabicyclo[3.2.0]hept-2-ene-2-carboxvlate] | 6.2 | 6.2 | > 50 | 50 | > 50 | 50 | 1.6 | 6.2 | 1.6 | 50 | > 50 | 6.2 | > 50 | 25 | 6.2 | > 50 | 50 | ≤ 0.2 | 12.5 | 6.2 | 
4 | NCCSC1=C(C(=O)O)N2C(=O)CC2C1 (centres unmarked) [Example 15, 3-Aminoethylthio-7-oxo-1-azabicyclo[3.2.0]hept-2-ene-2-carboxylic acid] | 3.1 (≈ 13.6 µM) | 1.6 (≈ 7.01 µM) | 6.2 (≈ 27.2 µM) | 1.6 (≈ 7.01 µM) |  | 6.2 (≈ 27.2 µM) | 0.4 (≈ 1.75 µM) | > 3.1 | 0.8 (≈ 3.5 µM) | 25 (≈ 110 µM) | 25 (≈ 110 µM) | 0.8 (≈ 3.5 µM) | 25 (≈ 110 µM) | 3.1 (≈ 13.6 µM) | 3.1 (≈ 13.6 µM) | 25 (≈ 110 µM) | 25 (≈ 110 µM) | 0.2 (≈ 0.876 µM) | 3.1 (≈ 13.6 µM) | 3.1 (≈ 13.6 µM) | 
5 | CCSC1=C(C(=O)OC2OC(=O)c3ccccc32)N2C(=O)C[C@H]2C1 (some centres unmarked) [Example 9, Phthalidyl 3-ethylthio-7-oxo-1-azabicyclo[3.2.0]hept-2-ene-2-carboxylate] | 12.5 (≈ 36.2 µM) | 12.5 (≈ 36.2 µM) | > 50 | > 50 | > 50 | 50 (≈ 145 µM) | 12.5 (≈ 36.2 µM) | > 50 | 25 (≈ 72.4 µM) | 25 (≈ 72.4 µM) | > 50 | > 50 | > 50 | 12.5 (≈ 36.2 µM) | 12.5 (≈ 36.2 µM) | > 50 | 25 (≈ 72.4 µM) |  |  | 12.5 (≈ 36.2 µM) | 
6 | CCSC1=C(C(=O)OCc2ccc([N+](=O)[O-])cc2)N2C(=O)[C@@H](CCN=[N+]=[N-])[C@H]2C1 (relative stereo) [Example 82, p - Nitrobenzyl - 6β-(2 - azidoethyl) - 3 - ethylthio - 7 - oxo - 1 - azabicyclo [3.2.O] hept-2 - ene - 2 - carboxylate] | 3.1 (≈ 7.43 µM) | 1.6 (≈ 3.83 µM) | > 50 | 12.5 (≈ 29.9 µM) | 50 (≈ 120 µM) | 12.5 (≈ 29.9 µM) |  | 1.6 (≈ 3.83 µM) | 1.6 (≈ 3.83 µM) | 12.5 (≈ 29.9 µM) | 50 (≈ 120 µM) | 0.8 (≈ 1.92 µM) | 6.2 (≈ 14.9 µM) | 3.1 (≈ 7.43 µM) | 1.6 (≈ 3.83 µM) | 12.5 (≈ 29.9 µM) | 12.5 (≈ 29.9 µM) |  | 12.5 (≈ 29.9 µM) | 3.1 (≈ 7.43 µM) | 
